Patent US20080081814A1, “Carbonyl Compounds Which Can be Used as Inhibitors of Coagulation Factor Xa” (priority 2004, published 2008)

Target: factor Xa (Homo sapiens, UniProt P00742)
Test: Factor Xa inhibition (FXa-IC50)
Format: biochemical
Excerpt: The inhibition of factor Xa by the compounds according to the invention and the measurement of the anticoagulant and antithrombotic activity can be determined by conventional in-vitro or in-vivo methods. A suitable method is described, for example, by J. Hauptmann et al. in Thrombosis and Haemostasis 1990, 63, 220-223.
The inhibition of factor Xa can be measured, for example by the method of T. Hara et al. in Thromb. Haemostas. 1994, 71, 314-319.

Chain of factor Xa (P00742 235-488 limits assumed): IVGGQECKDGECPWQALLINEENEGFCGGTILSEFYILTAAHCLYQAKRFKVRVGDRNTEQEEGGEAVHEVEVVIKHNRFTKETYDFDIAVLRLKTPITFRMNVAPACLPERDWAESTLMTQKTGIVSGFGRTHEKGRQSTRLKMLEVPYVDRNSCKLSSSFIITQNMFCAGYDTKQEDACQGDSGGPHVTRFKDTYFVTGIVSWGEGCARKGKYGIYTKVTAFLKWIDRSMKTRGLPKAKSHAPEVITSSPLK
Chain of factor Xa (P00742 41-179 partner limits assumed): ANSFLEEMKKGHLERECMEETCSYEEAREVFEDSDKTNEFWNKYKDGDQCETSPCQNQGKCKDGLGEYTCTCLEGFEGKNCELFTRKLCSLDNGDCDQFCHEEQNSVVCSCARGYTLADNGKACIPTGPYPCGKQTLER

- IC50: 2 nM
Compound: CCOC(=O)O[C@@H]1C[C@H](C(=O)Nc2ccc(N3CCOCC3=O)cc2)N(C(=O)Nc2ccc(Cl)cc2)C1 [Compound A1, N-1-(4-chlorophenyl)-4-(ethoxycarbonyloxy)-N-2-[4-(3-oxomorpholin-4-yl)phenyl)-(2R,4R)-pyrrolidine-1,2-dicarboxamide]
